Source: PubChem BioAssay (NCI)
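96-well plates; 48 h exposure; 5 concentrations. Endpoints by linear interpolation between flanking doses. Not reached: highest tested concentration assigned. TGI marks complete inhibition of growth.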

Legend:
Test in all cases: DTP human tumour cell line panel, 48 h
786-0 renal = system: 786-0 renal
A498 renal = system: A498 renal
A549 NSCLC = system: A549 NSCLC
ACHN renal = system: ACHN renal
CAKI-1 renal = system: CAKI-1 renal
CCRF-CEM leukemia = system: CCRF-CEM leukemia
COLO 205 colon = system: COLO 205 colon
DLD-1 colon = system: DLD-1 colon
DMS 114 small cell lung = system: DMS 114 small cell lung
DMS 273 small cell lung = system: DMS 273 small cell lung
EKVX NSCLC = system: EKVX NSCLC
HCC-2998 colon = system: HCC-2998 colon
HCT-116 colon = system: HCT-116 colon
HCT-15 colon = system: HCT-15 colon
HL-60(TB) leukemia = system: HL-60(TB) leukemia
HOP-18 NSCLC = system: HOP-18 NSCLC
HOP-62 NSCLC = system: HOP-62 NSCLC
HOP-92 NSCLC = system: HOP-92 NSCLC
HT29 colon = system: HT29 colon
IGROV1 ovarian = system: IGROV1 ovarian
K-562 leukemia = system: K-562 leukemia
KM12 colon = system: KM12 colon
KM20L2 colon = system: KM20L2 colon
LOX IMVI melanoma = system: LOX IMVI melanoma
LXFL 529 NSCLC = system: LXFL 529 NSCLC
M14 melanoma = system: M14 melanoma
M19-MEL melanoma = system: M19-MEL melanoma
MALME-3M melanoma = system: MALME-3M melanoma
MOLT-4 leukemia = system: MOLT-4 leukemia
NCI-H23 lung = system: NCI-H23 lung
NCI-H460 lung = system: NCI-H460 lung
NCI-H522 lung = system: NCI-H522 lung
OVCAR-3 ovarian = system: OVCAR-3 ovarian
OVCAR-4 ovarian = system: OVCAR-4 ovarian
OVCAR-5 ovarian = system: OVCAR-5 ovarian
OVCAR-8 ovarian = system: OVCAR-8 ovarian
RPMI-8226 leukemia = system: RPMI-8226 leukemia
RXF 393 renal = system: RXF 393 renal
RXF-631 renal = system: RXF-631 renal
SF-268 CNS = system: SF-268 CNS
SF-295 CNS = system: SF-295 CNS
SF-539 CNS = system: SF-539 CNS
SK-MEL-2 melanoma = system: SK-MEL-2 melanoma
SK-MEL-28 melanoma = system: SK-MEL-28 melanoma
SK-MEL-5 melanoma = system: SK-MEL-5 melanoma
SK-OV-3 ovarian = system: SK-OV-3 ovarian
SN12C renal = system: SN12C renal
SNB-19 CNS = system: SNB-19 CNS
SNB-75 CNS = system: SNB-75 CNS
SNB-78 CNS = system: SNB-78 CNS
SR leukemia = system: SR leukemia
SW-620 colon = system: SW-620 colon
TK-10 renal = system: TK-10 renal
U251 CNS = system: U251 CNS
UACC-257 melanoma = system: UACC-257 melanoma
UACC-62 melanoma = system: UACC-62 melanoma
UO-31 renal = system: UO-31 renal
XF 498 CNS = system: XF 498 CNS
NCI-H226 lung = system: NCI-H226 lung

SMILES: O=c1[nH]cc(OCC(F)(F)F)c(=O)[nH]1
- TGI (786-0 renal): > 100 µM
- TGI (A498 renal): > 100 µM
- TGI (A549 NSCLC): > 100 µM
- TGI (ACHN renal): > 100 µM
- TGI (CAKI-1 renal): > 100 µM
- TGI (CCRF-CEM leukemia): > 100 µM
- TGI (COLO 205 colon): > 100 µM
- TGI (DLD-1 colon): > 100 µM
- TGI (DMS 114 small cell lung): > 100 µM
- TGI (DMS 273 small cell lung): > 100 µM
- TGI (EKVX NSCLC): > 100 µM
- TGI (HCC-2998 colon): > 100 µM
- TGI (HCT-116 colon): > 100 µM
- TGI (HCT-15 colon): > 100 µM
- TGI (HL-60(TB) leukemia): > 100 µM
- TGI (HOP-18 NSCLC): > 100 µM
- TGI (HOP-62 NSCLC): > 100 µM
- TGI (HOP-92 NSCLC): > 100 µM
- TGI (HT29 colon): > 100 µM
- TGI (IGROV1 ovarian): > 100 µM
- TGI (K-562 leukemia): > 100 µM
- TGI (KM12 colon): > 100 µM
- TGI (KM20L2 colon): > 100 µM
- TGI (LOX IMVI melanoma): > 100 µM
- TGI (LXFL 529 NSCLC): > 100 µM
- TGI (M14 melanoma): > 100 µM
- TGI (M19-MEL melanoma): > 100 µM
- TGI (MALME-3M melanoma): > 100 µM
- TGI (MOLT-4 leukemia): > 100 µM
- TGI (NCI-H23 lung): > 100 µM
- TGI (NCI-H460 lung): > 100 µM
- TGI (NCI-H522 lung): > 100 µM
- TGI (OVCAR-3 ovarian): > 100 µM
- TGI (OVCAR-4 ovarian): > 100 µM
- TGI (OVCAR-5 ovarian): > 100 µM
- TGI (OVCAR-8 ovarian): > 100 µM
- TGI (RPMI-8226 leukemia): > 100 µM
- TGI (RXF 393 renal): > 100 µM
- TGI (RXF-631 renal): > 100 µM
- TGI (SF-268 CNS): > 100 µM
- TGI (SF-295 CNS): > 100 µM
- TGI (SF-539 CNS): > 100 µM
- TGI (SK-MEL-2 melanoma): > 100 µM
- TGI (SK-MEL-28 melanoma): > 100 µM
- TGI (SK-MEL-5 melanoma): > 100 µM
- TGI (SK-OV-3 ovarian): > 100 µM
- TGI (SN12C renal): > 100 µM
- TGI (SNB-19 CNS): > 100 µM
- TGI (SNB-75 CNS): > 100 µM
- TGI (SNB-78 CNS): > 100 µM
- TGI (SR leukemia): > 100 µM
- TGI (SW-620 colon): > 100 µM
- TGI (TK-10 renal): > 100 µM
- TGI (U251 CNS): > 100 µM
- TGI (UACC-257 melanoma): > 100 µM
- TGI (UACC-62 melanoma): > 100 µM
- TGI (UO-31 renal): > 100 µM
- TGI (XF 498 CNS): > 100 µM

SMILES: O=C1CC2C(=O)N(Cc3ccccc3)C1C(S(=O)(=O)c1ccccc1)C2S(=O)(=O)c1ccccc1 (centres undefined)
- TGI (786-0 renal): 9.68 µM
- TGI (A498 renal): 32.2 µM
- TGI (A549 NSCLC): 33.2 µM
- TGI (ACHN renal): 3.24 µM
- TGI (CAKI-1 renal): 1.85 µM
- TGI (CCRF-CEM leukemia): 3.46 µM
- TGI (COLO 205 colon): 3.18 µM
- TGI (DLD-1 colon): 3.13 µM
- TGI (DMS 114 small cell lung): 2.72 µM
- TGI (DMS 273 small cell lung): 18.6 µM
- TGI (HCC-2998 colon): 20.7 µM
- TGI (HCT-116 colon): 15.9 µM
- TGI (HCT-15 colon): 2.91 µM
- TGI (HL-60(TB) leukemia): 3.51 µM
- TGI (HOP-18 NSCLC): 13.8 µM
- TGI (HOP-62 NSCLC): 36.9 µM
- TGI (HOP-92 NSCLC): 4.24 µM
- TGI (HT29 colon): 5.1 µM
- TGI (IGROV1 ovarian): 36 µM
- TGI (K-562 leukemia): 6.66 µM
- TGI (KM12 colon): 29.7 µM
- TGI (KM20L2 colon): 7.4 µM
- TGI (LOX IMVI melanoma): 3.32 µM
- TGI (LXFL 529 NSCLC): 2.61 µM
- TGI (M14 melanoma): 4.22 µM
- TGI (M19-MEL melanoma): 4.09 µM
- TGI (MALME-3M melanoma): 3.87 µM
- TGI (MOLT-4 leukemia): 7.72 µM
- TGI (NCI-H226 lung): 27.8 µM
- TGI (NCI-H23 lung): 10.7 µM
- TGI (NCI-H460 lung): 34.9 µM
- TGI (NCI-H522 lung): 1.38 µM
- TGI (OVCAR-3 ovarian): 3.65 µM
- TGI (OVCAR-4 ovarian): 4.74 µM
- TGI (OVCAR-5 ovarian): 31.9 µM
- TGI (OVCAR-8 ovarian): 5.19 µM
- TGI (RPMI-8226 leukemia): 18.4 µM
- TGI (RXF 393 renal): 3.5 µM
- TGI (RXF-631 renal): 28.1 µM
- TGI (SF-268 CNS): 12.1 µM
- TGI (SF-295 CNS): 37.4 µM
- TGI (SF-539 CNS): 4.18 µM
- TGI (SK-MEL-28 melanoma): 3.72 µM
- TGI (SK-MEL-5 melanoma): 29.2 µM
- TGI (SK-OV-3 ovarian): 31.5 µM
- TGI (SN12C renal): 3.18 µM
- TGI (SNB-75 CNS): 21.2 µM
- TGI (SNB-78 CNS): 36.1 µM
- TGI (SR leukemia): 10.5 µM
- TGI (SW-620 colon): 1.69 µM
- TGI (TK-10 renal): 3.95 µM
- TGI (U251 CNS): 8.61 µM
- TGI (UACC-257 melanoma): 3.25 µM
- TGI (UACC-62 melanoma): 5.22 µM
- TGI (UO-31 renal): 22.6 µM
- TGI (XF 498 CNS): 3.53 µM
